According to PubChem BioAssay AID1963985 (Molecular Pharmacology Branch, DTP, NCI, 2024):

Tested on: 252836-082-R-J2-PDC tumor spheroids, viability
Assay: Anticancer human tumor 252836-082-R-J2-PDC patient-derived head and neck squamous cell carcinoma cell line growth inhibition [PI3K]
Conditions: spheroids with HUVEC and MSC; for IC50: curve of first compound; for viability, T/C: stronger effect = lower value
Outline: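 Multi-cell spheroids combine tumor cells with HUVEC and human MSCs, treated with targeted agents alone or with inavolisib, alpelisib, duvelisib or copanlisib. Concentrations fall in half-log steps from at or near clinical Cmax, or from 10 microM where Cmax is unknown; viability read-out.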

[1] = second compound 0.0316 µM, first compound 0.0316 µM
[2] = second compound 0.0316 µM, first compound 0.1 µM
[3] = second compound 0.1 µM, first compound 0.0316 µM
[4] = second compound 0.1 µM, first compound 0.1 µM
[5] = second compound 0.316 µM, first compound 0.0316 µM
[6] = second compound 0.316 µM, first compound 0.1 µM
[7] = second compound 1 µM, first compound 0.0316 µM
[8] = second compound 1 µM, first compound 0.1 µM
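Note: spheroids exposed to agents for seven days before readout.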
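Throughout, for viability, T/C: percent of vehicle DMSO control viability so 100% = untreated growth.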

Question: For CC(C)NCC(C(=O)N1CCN(c2ncnc3c2C(C)CC3O)CC1)c1ccc(Cl)cc1 (centres undefined) + CC(Nc1ncnc2nc[nH]c12)c1cc2cccc(Cl)c2c(=O)n1-c1ccccc1, which IC50 (second compound 0.0316 µM) is on record?
Answer: Its IC50 is 1150 nM.

Question: And the IC50 (second compound 0.1 µM)?
Answer: The IC50 was 1100 nM.

Question: What about the IC50 (second compound 0.316 µM) of the same molecule?
Answer: The IC50 was 991 nM.

Question: And the IC50 (second compound 1 µM)?
Answer: Its IC50 is 980 nM.

Question: And the IC50 (second compound 3.16 µM)?
Answer: Its IC50 is 916 nM.

Question: And the IC50 (second compound 10 µM)?
Answer: The IC50 was 742 nM.

Question: What about the viability, T/C [1] of the same molecule?
Answer: The viability, T/C was 99.4%.

Question: What about the viability, T/C [2] of the same molecule?
Answer: Its viability, T/C is 89.4%.

Question: What about the viability, T/C (second compound 0.0316 µM, first compound 0.316 µM) of the same molecule?
Answer: Its viability, T/C is 76.7%.

Question: What about the viability, T/C (second compound 0.0316 µM, first compound 1 µM) of the same molecule?
Answer: The viability, T/C was 54.5%.

Question: What about the viability, T/C (second compound 0.0316 µM, first compound 3.16 µM) of the same molecule?
Answer: Its viability, T/C is 28.6%.

Question: What about the viability, T/C (second compound 0.0316 µM, first compound 10 µM) of the same molecule?
Answer: Its viability, T/C is 22.1%.

Question: And the viability, T/C [3]?
Answer: Its viability, T/C is 97.9%.

Question: And the viability, T/C [4]?
Answer: Its viability, T/C is 81.1%.

Question: What about the viability, T/C (second compound 0.1 µM, first compound 0.316 µM) of the same molecule?
Answer: The viability, T/C was 77.4%.

Question: And the viability, T/C (second compound 0.1 µM, first compound 1 µM)?
Answer: The viability, T/C was 49%.

Question: What about the viability, T/C (second compound 0.1 µM, first compound 3.16 µM) of the same molecule?
Answer: The viability, T/C was 33.2%.

Question: And the viability, T/C (second compound 0.1 µM, first compound 10 µM)?
Answer: Its viability, T/C is 21.7%.

Question: What about the viability, T/C [5] of the same molecule?
Answer: Its viability, T/C is 83.3%.

Question: And the viability, T/C [6]?
Answer: Its viability, T/C is 83.1%.

Question: What about the viability, T/C (second compound 0.316 µM, first compound 0.316 µM) of the same molecule?
Answer: The viability, T/C was 85%.

Question: What about the viability, T/C (second compound 0.316 µM, first compound 1 µM) of the same molecule?
Answer: The viability, T/C was 48.3%.

Question: And the viability, T/C (second compound 0.316 µM, first compound 3.16 µM)?
Answer: The viability, T/C was 38.1%.

Question: And the viability, T/C (second compound 0.316 µM, first compound 10 µM)?
Answer: The viability, T/C was 20.7%.

Question: And the viability, T/C [7]?
Answer: Its viability, T/C is 95.4%.

Question: What about the viability, T/C [8] of the same molecule?
Answer: Its viability, T/C is 98.1%.

Question: And the viability, T/C (second compound 1 µM, first compound 0.316 µM)?
Answer: Its viability, T/C is 65.3%.

Question: And the viability, T/C (second compound 1 µM, first compound 1 µM)?
Answer: Its viability, T/C is 51.5%.

Question: And the viability, T/C (second compound 1 µM, first compound 3.16 µM)?
Answer: The viability, T/C was 33.6%.

Question: What about the viability, T/C (second compound 1 µM, first compound 10 µM) of the same molecule?
Answer: The viability, T/C was 20.5%.

Question: What about the viability, T/C (second compound 3.16 µM, first compound 0.0316 µM) of the same molecule?
Answer: Its viability, T/C is 75.7%.

Question: What about the viability, T/C (second compound 3.16 µM, first compound 0.1 µM) of the same molecule?
Answer: The viability, T/C was 74.9%.

Question: What about the viability, T/C (second compound 3.16 µM, first compound 0.316 µM) of the same molecule?
Answer: Its viability, T/C is 75%.

Question: And the viability, T/C (second compound 3.16 µM, first compound 1 µM)?
Answer: The viability, T/C was 46.5%.

Question: And the viability, T/C (second compound 3.16 µM, first compound 3.16 µM)?
Answer: The viability, T/C was 35.4%.

Question: And the viability, T/C (second compound 3.16 µM, first compound 10 µM)?
Answer: Its viability, T/C is 24.2%.

Question: And the viability, T/C (second compound 10 µM, first compound 0.0316 µM)?
Answer: Its viability, T/C is 71.3%.

Question: And the viability, T/C (second compound 10 µM, first compound 0.1 µM)?
Answer: Its viability, T/C is 69.2%.

Question: And the viability, T/C (second compound 10 µM, first compound 0.316 µM)?
Answer: The viability, T/C was 59.6%.

Question: What about the viability, T/C (second compound 10 µM, first compound 1 µM) of the same molecule?
Answer: Its viability, T/C is 46.3%.

Question: And the viability, T/C (second compound 10 µM, first compound 3.16 µM)?
Answer: The viability, T/C was 30.4%.

Question: And the viability, T/C (second compound 10 µM, first compound 10 µM)?
Answer: Its viability, T/C is 16.6%.

Question: CC(=O)c1c(C)c2cnc(Nc3ccc(N4CCNCC4)cn3)nc2n(C2CCCC2)c1=O + COc1c(OCCCN2CCOCC2)ccc2c3n(c(=NC(=O)c4cnc(N)nc4)nc12)CCN3 was tested. Which IC50 (second compound 0.00316 µM) did it give?
Answer: The IC50 was > 100 nM.

Question: What about the IC50 (second compound 0.01 µM) of the same molecule?
Answer: The IC50 was > 100 nM.

Question: What about the IC50 (second compound 0.0316 µM) of the same molecule?
Answer: Its IC50 is > 100 nM.

Question: What about the IC50 (second compound 0.1 µM) of the same molecule?
Answer: The IC50 was < 0.316 nM.

Question: What about the IC50 (second compound 0.316 µM) of the same molecule?
Answer: Its IC50 is < 0.316 nM.

Question: What about the IC50 (second compound 1 µM) of the same molecule?
Answer: The IC50 was < 0.316 nM.

Question: And the viability, T/C (second compound 0.00316 µM, first compound 0.000316 µM)?
Answer: The viability, T/C was 95%.

Question: What about the viability, T/C (second compound 0.00316 µM, first compound 0.001 µM) of the same molecule?
Answer: The viability, T/C was 93.1%.

Question: And the viability, T/C (second compound 0.00316 µM, first compound 0.00316 µM)?
Answer: Its viability, T/C is 85.6%.

Question: And the viability, T/C (second compound 0.00316 µM, first compound 0.01 µM)?
Answer: The viability, T/C was 96.3%.

Question: What about the viability, T/C (second compound 0.00316 µM, first compound 0.0316 µM) of the same molecule?
Answer: Its viability, T/C is 87.8%.

Question: What about the viability, T/C (second compound 0.00316 µM, first compound 0.1 µM) of the same molecule?
Answer: The viability, T/C was 99%.

Question: What about the viability, T/C (second compound 0.01 µM, first compound 0.000316 µM) of the same molecule?
Answer: Its viability, T/C is 84.7%.

Question: What about the viability, T/C (second compound 0.01 µM, first compound 0.001 µM) of the same molecule?
Answer: Its viability, T/C is 81.4%.

Question: And the viability, T/C (second compound 0.01 µM, first compound 0.00316 µM)?
Answer: The viability, T/C was 78.5%.

Question: What about the viability, T/C (second compound 0.01 µM, first compound 0.01 µM) of the same molecule?
Answer: The viability, T/C was 84.3%.

Question: And the viability, T/C (second compound 0.01 µM, first compound 0.0316 µM)?
Answer: The viability, T/C was 81.1%.

Question: And the viability, T/C (second compound 0.01 µM, first compound 0.1 µM)?
Answer: Its viability, T/C is 83.7%.

Question: And the viability, T/C (second compound 0.0316 µM, first compound 0.000316 µM)?
Answer: The viability, T/C was 69.5%.

Question: What about the viability, T/C (second compound 0.0316 µM, first compound 0.001 µM) of the same molecule?
Answer: Its viability, T/C is 60.9%.

Question: And the viability, T/C (second compound 0.0316 µM, first compound 0.00316 µM)?
Answer: The viability, T/C was 66.9%.

Question: And the viability, T/C (second compound 0.0316 µM, first compound 0.01 µM)?
Answer: The viability, T/C was 56.5%.

Question: What about the viability, T/C [1] of the same molecule?
Answer: The viability, T/C was 64%.

Question: And the viability, T/C [2]?
Answer: Its viability, T/C is 62.6%.

Question: And the viability, T/C (second compound 0.1 µM, first compound 0.000316 µM)?
Answer: Its viability, T/C is 37.1%.

Question: And the viability, T/C (second compound 0.1 µM, first compound 0.001 µM)?
Answer: Its viability, T/C is 41.2%.

Question: And the viability, T/C (second compound 0.1 µM, first compound 0.00316 µM)?
Answer: The viability, T/C was 37.8%.

Question: What about the viability, T/C (second compound 0.1 µM, first compound 0.01 µM) of the same molecule?
Answer: Its viability, T/C is 45.5%.

Question: And the viability, T/C [3]?
Answer: The viability, T/C was 41.7%.

Question: And the viability, T/C [4]?
Answer: The viability, T/C was 37.5%.

Question: What about the viability, T/C (second compound 0.316 µM, first compound 0.000316 µM) of the same molecule?
Answer: Its viability, T/C is 18.2%.

Question: What about the viability, T/C (second compound 0.316 µM, first compound 0.001 µM) of the same molecule?
Answer: Its viability, T/C is 21.1%.

Question: What about the viability, T/C (second compound 0.316 µM, first compound 0.00316 µM) of the same molecule?
Answer: The viability, T/C was 20.6%.

Question: What about the viability, T/C (second compound 0.316 µM, first compound 0.01 µM) of the same molecule?
Answer: Its viability, T/C is 18.7%.

Question: What about the viability, T/C [5] of the same molecule?
Answer: The viability, T/C was 21.8%.

Question: And the viability, T/C [6]?
Answer: Its viability, T/C is 16.6%.

Question: What about the viability, T/C (second compound 1 µM, first compound 0.000316 µM) of the same molecule?
Answer: Its viability, T/C is 4.69%.

Question: What about the viability, T/C (second compound 1 µM, first compound 0.001 µM) of the same molecule?
Answer: Its viability, T/C is 5.36%.

Question: And the viability, T/C (second compound 1 µM, first compound 0.00316 µM)?
Answer: Its viability, T/C is 5.54%.

Question: And the viability, T/C (second compound 1 µM, first compound 0.01 µM)?
Answer: Its viability, T/C is 5.58%.

Question: What about the viability, T/C [7] of the same molecule?
Answer: The viability, T/C was 6.27%.

Question: And the viability, T/C [8]?
Answer: Its viability, T/C is 4.95%.
